Reference: ChEMBL document CHEMBL1201862, “PubChem BioAssay data set” (2004)
The source made the active and inactive calls.

Assays:
[1] = target: T1, Heat shock factor protein 1 (Mus musculus, UniProt P38532); experiment: inhibition of MG132-induced HSE-luciferase signal, confirmation, cell-based, NIH3T3, luminescence, dose retest (AID 2382); format: functional;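 also: NIH3T3 fibroblasts with HSF1-driven luciferase reporter stressed by proteasome inhibitor MG132; luminescence from HSF1-driven luciferase expression after 8 hours of MG132 stress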
T1 sequence (P38532 whole entry): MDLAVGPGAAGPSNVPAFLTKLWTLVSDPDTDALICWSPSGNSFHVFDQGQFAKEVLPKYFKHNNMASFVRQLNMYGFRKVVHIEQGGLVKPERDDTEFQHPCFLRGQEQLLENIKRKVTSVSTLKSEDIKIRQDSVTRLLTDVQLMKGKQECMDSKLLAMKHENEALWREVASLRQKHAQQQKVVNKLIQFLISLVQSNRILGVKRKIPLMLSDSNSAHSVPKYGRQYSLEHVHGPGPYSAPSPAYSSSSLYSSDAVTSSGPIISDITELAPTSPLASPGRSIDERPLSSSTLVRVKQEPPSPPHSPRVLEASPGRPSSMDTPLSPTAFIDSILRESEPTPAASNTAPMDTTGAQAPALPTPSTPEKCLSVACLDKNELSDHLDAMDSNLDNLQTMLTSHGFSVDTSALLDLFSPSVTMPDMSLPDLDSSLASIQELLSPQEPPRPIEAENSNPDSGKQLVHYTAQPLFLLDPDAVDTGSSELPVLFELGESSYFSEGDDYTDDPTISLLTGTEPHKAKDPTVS

[2] = system: Streptococcus sp. 'group A'; experiment: growth inhibition of control SK(-) GAS strain, dose response, counter-screen for streptokinase expression inhibitor project, luminescence, kanamycin, BacTiterGlo, confirmation (AID 1900); format: functional, organism-based
Protein RecA = target: T2, Protein RecA (Mycobacterium tuberculosis, UniProt P9WHJ3); experiment: Fluorescence Cell-Free Homogeneous Dose Retest to Identify Inhibitors of RecA-Intein Splicing Activity. [Related pubchem assays (depositor defined):AID2097, AID2223, AID489010, AID492950]; format: functional
T2 sequence (P9WHJ3 whole entry): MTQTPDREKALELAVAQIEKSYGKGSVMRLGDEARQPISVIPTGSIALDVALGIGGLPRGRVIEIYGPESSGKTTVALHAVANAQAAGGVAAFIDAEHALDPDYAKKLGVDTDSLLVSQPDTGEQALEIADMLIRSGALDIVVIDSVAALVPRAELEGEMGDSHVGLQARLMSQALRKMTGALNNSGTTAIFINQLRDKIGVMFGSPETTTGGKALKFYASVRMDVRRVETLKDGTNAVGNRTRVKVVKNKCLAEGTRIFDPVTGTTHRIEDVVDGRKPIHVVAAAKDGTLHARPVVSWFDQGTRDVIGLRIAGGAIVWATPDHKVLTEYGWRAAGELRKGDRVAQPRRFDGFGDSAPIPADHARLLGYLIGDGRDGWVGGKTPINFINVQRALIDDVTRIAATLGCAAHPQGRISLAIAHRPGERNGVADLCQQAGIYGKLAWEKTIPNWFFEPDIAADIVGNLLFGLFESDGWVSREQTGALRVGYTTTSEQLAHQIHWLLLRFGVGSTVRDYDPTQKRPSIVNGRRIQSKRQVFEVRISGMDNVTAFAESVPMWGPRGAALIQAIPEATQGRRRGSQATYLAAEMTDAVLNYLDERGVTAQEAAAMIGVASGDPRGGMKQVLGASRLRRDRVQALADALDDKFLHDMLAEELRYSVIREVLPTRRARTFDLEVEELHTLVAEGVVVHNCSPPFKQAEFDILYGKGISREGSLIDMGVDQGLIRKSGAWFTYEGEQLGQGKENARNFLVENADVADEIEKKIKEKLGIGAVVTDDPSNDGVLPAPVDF

Streptokinase A = target: T3, Streptokinase A (Streptococcus pyogenes serotype M1, UniProt P10520); experiment: S. pyogenes streptokinase expression inhibitors, potency, dose response, plasminogen activation absorbance, OD405 (AID 1914); format: functional, Streptococcus pyogenes M1 GAS;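 also: secreted streptokinase activity via plasminogen activation per viability signal from cell pellet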
T3 sequence (P10520 whole entry): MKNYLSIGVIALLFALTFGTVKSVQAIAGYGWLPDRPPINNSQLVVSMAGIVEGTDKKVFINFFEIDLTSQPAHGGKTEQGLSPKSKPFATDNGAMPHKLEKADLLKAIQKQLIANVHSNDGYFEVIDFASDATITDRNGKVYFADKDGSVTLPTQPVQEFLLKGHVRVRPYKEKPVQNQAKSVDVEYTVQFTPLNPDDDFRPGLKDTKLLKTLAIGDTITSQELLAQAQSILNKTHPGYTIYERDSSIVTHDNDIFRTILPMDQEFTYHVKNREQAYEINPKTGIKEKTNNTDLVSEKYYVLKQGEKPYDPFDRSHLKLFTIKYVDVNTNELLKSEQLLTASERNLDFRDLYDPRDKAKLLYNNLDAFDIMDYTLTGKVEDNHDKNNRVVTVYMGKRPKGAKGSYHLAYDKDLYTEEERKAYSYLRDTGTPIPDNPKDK

[3] = Luminescent dose response cell-based high throughput screening assay for inhibitors of the Janus kinase 2 mutant JAK2V617F. [Related pubchem assays: 1446 (Primary screen.), 1521 (Confirmation assay.), 1486 (Counter screen.)]; format: functional
Streptococcus = experiment: Group A Streptococcus viability loss, dose response, counter-screen for streptokinase expression inhibitor project, luminescence, BacTiterGlo (AID 1915); format: functional, organism-based;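 also: potency for reduction of bacterial viability or growth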
[4] = target: T4, Replicative DNA helicase DnaB (Mycobacterium tuberculosis, UniProt P9WMR3); experiment: DnaB intein splicing inhibitors, dose response, biochemical, cell-free fluorescence (AID 449749); format: functional
T4 sequence (P9WMR3 whole entry): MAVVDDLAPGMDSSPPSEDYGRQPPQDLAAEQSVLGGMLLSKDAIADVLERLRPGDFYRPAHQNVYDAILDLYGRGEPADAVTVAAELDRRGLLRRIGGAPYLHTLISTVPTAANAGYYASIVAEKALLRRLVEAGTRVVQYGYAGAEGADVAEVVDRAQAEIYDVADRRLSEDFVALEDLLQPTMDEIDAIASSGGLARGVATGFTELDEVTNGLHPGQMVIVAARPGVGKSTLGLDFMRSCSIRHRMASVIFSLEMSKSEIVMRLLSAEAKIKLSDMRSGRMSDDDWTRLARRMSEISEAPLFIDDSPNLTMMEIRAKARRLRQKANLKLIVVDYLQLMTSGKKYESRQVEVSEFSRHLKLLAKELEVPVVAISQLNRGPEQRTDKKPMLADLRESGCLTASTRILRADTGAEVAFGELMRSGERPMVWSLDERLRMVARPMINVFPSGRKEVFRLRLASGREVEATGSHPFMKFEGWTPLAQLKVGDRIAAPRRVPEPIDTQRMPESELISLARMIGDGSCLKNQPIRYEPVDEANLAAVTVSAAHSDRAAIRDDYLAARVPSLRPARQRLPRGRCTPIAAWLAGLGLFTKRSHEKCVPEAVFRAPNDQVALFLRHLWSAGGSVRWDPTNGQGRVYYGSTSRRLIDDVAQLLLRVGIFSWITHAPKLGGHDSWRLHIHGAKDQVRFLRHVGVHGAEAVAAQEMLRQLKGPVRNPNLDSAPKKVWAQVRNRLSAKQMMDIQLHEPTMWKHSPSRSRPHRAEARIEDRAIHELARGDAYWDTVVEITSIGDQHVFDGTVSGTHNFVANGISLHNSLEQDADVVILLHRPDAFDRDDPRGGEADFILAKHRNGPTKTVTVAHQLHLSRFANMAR

[5] = target: Peroxisome proliferator-activated receptor gamma/Nuclear receptor coactivator 1 (Homo sapiens, UniProt P37231); experiment: TR-FRET dose response biochemical High Throughput Screening assay for agonists of the steroid receptor coactivator 1 (SRC-1) recruitment by the peroxisome proliferator-activated receptor gamma (PPAR gamma): non-selective agonists. [Related pubchem assays (depositor defined):AID1300, AID1808, AID504735, AID631]; format: protein assay
Peroxisome proliferator-activated receptor gamma/Nuclear receptor coactivator 1, sequence (P37231 whole entry): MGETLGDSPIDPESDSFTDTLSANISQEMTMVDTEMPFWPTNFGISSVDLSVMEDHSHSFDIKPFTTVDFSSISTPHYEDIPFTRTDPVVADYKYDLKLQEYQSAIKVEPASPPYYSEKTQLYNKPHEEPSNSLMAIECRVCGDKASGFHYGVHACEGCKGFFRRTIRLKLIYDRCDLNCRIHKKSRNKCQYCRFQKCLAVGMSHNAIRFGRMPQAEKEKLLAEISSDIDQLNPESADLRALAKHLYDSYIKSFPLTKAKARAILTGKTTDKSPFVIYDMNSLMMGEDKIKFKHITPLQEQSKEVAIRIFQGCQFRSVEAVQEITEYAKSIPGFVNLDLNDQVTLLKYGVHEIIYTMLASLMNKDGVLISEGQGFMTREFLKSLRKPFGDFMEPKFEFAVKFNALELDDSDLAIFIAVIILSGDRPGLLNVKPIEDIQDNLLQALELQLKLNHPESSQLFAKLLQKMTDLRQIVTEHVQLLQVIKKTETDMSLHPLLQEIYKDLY
Peroxisome proliferator-activated receptor gamma/Nuclear receptor coactivator 1, sequence (Q15788 whole entry, further chain): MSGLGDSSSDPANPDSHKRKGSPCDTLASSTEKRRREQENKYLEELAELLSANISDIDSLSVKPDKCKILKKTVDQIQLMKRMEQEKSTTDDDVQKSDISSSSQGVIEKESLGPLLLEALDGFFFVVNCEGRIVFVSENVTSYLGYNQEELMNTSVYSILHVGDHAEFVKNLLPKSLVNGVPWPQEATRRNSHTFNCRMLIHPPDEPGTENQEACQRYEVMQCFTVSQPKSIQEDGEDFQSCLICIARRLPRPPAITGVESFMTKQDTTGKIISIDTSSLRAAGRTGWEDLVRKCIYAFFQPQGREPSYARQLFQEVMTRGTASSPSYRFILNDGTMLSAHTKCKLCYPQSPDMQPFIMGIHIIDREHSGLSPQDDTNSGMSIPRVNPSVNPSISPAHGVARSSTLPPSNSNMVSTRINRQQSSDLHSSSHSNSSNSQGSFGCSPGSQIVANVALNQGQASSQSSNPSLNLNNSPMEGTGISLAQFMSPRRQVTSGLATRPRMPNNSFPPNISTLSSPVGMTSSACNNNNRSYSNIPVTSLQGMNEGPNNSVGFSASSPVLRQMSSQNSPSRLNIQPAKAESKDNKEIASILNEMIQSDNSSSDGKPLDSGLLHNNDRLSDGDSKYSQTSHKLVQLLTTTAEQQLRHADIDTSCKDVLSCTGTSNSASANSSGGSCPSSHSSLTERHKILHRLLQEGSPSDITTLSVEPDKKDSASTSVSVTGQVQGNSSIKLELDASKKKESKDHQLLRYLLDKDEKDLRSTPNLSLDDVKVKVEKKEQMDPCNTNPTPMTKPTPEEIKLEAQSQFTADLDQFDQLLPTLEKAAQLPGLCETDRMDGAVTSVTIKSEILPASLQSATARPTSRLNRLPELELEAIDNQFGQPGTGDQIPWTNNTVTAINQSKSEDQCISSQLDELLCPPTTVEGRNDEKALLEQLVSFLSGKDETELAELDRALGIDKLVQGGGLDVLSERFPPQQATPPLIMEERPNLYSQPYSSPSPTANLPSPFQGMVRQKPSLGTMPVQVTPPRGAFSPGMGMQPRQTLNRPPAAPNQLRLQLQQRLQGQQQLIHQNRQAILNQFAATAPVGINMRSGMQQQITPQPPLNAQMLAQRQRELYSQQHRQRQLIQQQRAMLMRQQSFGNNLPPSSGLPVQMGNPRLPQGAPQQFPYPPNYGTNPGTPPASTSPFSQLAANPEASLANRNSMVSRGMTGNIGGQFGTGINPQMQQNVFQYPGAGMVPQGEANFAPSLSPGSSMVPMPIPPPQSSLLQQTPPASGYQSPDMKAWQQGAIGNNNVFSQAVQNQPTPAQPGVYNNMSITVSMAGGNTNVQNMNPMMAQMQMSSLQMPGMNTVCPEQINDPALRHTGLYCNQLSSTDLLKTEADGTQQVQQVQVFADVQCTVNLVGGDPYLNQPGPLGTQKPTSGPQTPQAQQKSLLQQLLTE

[6] = target: T5, Tyrosine-protein phosphatase non-receptor type 22 (Homo sapiens, UniProt Q9Y2R2); experiment: PTPN22 phosphatase inhibition, dose response, selectivity assay for STEP inhibitor project, biochemical (AID 624241); format: functional
T5 sequence (Q9Y2R2 whole entry): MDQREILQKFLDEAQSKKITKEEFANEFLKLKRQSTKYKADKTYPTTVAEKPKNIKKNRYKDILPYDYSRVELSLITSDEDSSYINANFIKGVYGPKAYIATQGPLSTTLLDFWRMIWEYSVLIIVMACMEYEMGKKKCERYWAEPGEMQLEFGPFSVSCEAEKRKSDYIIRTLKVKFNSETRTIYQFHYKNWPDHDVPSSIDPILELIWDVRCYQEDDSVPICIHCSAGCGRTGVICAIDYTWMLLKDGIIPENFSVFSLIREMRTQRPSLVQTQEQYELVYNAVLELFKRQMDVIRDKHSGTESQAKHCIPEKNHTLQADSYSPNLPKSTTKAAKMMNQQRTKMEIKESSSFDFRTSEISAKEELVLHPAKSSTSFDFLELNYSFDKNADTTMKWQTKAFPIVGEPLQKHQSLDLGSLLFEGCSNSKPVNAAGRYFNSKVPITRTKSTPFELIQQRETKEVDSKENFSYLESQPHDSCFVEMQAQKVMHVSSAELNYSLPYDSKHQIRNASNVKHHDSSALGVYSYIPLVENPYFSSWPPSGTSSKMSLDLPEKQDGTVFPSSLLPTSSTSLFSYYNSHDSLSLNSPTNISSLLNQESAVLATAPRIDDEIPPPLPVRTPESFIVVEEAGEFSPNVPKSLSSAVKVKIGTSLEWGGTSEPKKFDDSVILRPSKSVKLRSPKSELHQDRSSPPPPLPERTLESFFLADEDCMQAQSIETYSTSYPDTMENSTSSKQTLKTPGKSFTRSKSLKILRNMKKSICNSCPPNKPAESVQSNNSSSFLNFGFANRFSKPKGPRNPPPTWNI

[7] = target: 26S proteasome non-ATPase regulatory subunit 14 (Homo sapiens, UniProt O00487); experiment: inhibition of proteasome subunit RPN11 – biochemical, fluorescence polarization, uHTS hits, confirmation (AID 602368); format: functional
[8] = target: T6, Carboxy-terminal domain RNA polymerase II polypeptide A small phosphatase 1 (Homo sapiens, UniProt Q9GZU7); experiment: inhibitors of CTDSP1, concentration-response testing, biochemical assay, absorbance-based, actives from ultra-high-throughput screening (AID 540297); format: functional
T6 sequence (Q9GZU7 whole entry): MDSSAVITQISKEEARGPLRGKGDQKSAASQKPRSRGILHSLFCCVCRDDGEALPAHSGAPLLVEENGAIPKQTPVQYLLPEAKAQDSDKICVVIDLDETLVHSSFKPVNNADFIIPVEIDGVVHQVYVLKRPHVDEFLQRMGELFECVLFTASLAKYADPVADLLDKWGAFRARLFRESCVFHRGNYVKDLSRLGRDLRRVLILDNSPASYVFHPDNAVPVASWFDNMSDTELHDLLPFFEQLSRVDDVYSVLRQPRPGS

[9] = target: 72 kDa type IV collagenase (Homo sapiens, UniProt P08253); experiment: Dose Response validation of uHTS RPN11 inhibitor hits using a MMP-2 Fluorescence assay.; format: functional
72 kDa type IV collagenase, sequence (P08253 whole entry): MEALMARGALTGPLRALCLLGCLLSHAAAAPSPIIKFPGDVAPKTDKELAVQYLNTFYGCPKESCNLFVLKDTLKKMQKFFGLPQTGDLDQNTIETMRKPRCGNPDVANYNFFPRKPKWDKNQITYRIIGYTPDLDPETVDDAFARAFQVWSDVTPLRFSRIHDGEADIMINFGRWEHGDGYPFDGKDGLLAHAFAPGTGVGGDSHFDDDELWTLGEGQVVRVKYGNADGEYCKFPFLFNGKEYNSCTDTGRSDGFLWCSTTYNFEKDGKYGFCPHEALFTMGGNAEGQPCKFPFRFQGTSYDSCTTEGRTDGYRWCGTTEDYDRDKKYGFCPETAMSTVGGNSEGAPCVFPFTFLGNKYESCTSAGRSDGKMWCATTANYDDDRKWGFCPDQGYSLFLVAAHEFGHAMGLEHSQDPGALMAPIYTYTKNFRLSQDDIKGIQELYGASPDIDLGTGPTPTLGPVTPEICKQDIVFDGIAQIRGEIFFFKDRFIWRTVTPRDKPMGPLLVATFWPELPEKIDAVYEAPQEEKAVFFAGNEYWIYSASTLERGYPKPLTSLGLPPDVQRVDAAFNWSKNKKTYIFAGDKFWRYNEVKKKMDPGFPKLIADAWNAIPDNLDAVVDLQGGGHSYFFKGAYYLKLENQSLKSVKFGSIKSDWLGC

Prothrombin = Prothrombin (Bos taurus, UniProt P00735); experiment: thrombin inhibition, dose response, biochemical, fluorescence polarization, uHTS hits (AID 602369); format: functional
[10] = target: Tyrosine-protein phosphatase non-receptor type 11 (Homo sapiens, UniProt Q06124); experiment: SHP2 phosphatase inhibition, dose response, selectivity assay for STEP inhibitor project, biochemical (AID 602367); format: functional; conditions: read-out: IC50_Mean
[11] = target: Peroxisome proliferator-activated receptor gamma/Nuclear receptor coactivator 2 (Homo sapiens, UniProt P37231); experiment: TR-FRET dose response biochemical High Throughput Screening assay for agonists of the steroid receptor coactivator 2 (SRC-2) recruitment by the peroxisome proliferator-activated receptor gamma (PPAR gamma): non-selective agonists. [Related pubchem assays: 1297, 1032 ]; format: functional
Peroxisome proliferator-activated receptor gamma/Nuclear receptor coactivator 2, sequence (P37231 whole entry): as the sequence (P37231 whole entry) above
Peroxisome proliferator-activated receptor gamma/Nuclear receptor coactivator 2, sequence (Q15596 whole entry, further chain): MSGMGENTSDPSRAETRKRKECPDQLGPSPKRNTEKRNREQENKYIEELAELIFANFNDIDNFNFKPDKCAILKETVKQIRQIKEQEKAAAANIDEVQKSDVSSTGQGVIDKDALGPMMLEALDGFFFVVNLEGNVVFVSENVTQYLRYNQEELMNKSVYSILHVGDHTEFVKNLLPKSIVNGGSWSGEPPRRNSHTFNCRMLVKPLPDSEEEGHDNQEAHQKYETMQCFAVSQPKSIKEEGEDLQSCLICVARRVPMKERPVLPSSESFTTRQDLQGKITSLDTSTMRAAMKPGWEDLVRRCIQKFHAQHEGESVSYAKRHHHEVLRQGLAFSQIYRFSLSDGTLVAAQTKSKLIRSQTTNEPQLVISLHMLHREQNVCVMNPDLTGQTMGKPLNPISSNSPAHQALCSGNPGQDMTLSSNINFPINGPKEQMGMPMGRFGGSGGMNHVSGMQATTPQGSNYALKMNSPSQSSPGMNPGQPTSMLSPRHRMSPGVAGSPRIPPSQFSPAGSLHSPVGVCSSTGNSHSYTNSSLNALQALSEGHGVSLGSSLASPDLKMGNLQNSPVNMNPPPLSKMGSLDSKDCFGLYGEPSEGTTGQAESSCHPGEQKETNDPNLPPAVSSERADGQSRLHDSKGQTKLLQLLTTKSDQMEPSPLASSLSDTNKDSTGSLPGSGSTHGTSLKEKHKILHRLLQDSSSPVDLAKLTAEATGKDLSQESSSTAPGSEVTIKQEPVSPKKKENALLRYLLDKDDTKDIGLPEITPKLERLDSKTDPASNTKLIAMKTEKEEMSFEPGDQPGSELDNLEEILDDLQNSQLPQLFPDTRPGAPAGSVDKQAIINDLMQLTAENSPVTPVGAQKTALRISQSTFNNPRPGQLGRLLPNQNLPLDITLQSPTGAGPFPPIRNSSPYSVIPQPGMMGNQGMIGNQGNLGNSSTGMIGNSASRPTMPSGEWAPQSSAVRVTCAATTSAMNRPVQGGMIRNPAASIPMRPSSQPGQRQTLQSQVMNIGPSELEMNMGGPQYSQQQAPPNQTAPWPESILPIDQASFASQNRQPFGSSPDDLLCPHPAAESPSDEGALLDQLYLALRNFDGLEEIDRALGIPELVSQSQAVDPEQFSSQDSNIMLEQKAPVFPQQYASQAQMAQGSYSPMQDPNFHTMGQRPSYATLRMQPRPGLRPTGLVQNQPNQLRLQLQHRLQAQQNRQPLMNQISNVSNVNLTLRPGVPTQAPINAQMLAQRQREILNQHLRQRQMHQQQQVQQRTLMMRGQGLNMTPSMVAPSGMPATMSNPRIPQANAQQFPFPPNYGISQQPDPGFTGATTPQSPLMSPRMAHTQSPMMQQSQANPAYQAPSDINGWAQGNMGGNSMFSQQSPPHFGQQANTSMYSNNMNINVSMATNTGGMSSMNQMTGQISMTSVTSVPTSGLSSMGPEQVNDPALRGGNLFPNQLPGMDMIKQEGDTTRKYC

[12] = target: Peroxisome proliferator-activated receptor gamma/Nuclear receptor coactivator 3 (Homo sapiens, UniProt P37231); experiment: TR-FRET dose response biochemical High Throughput Screening assay for agonists of the steroid receptor coactivator 3 (SRC-3) recruitment by the peroxisome proliferator-activated receptor gamma (PPAR gamma): non-selective agonists. [Related pubchem assays: 1301 (Confirmation screen.), 1048 (Primary screen.)]; format: functional
[13] = target: Dual specificity protein phosphatase 3 (Homo sapiens, UniProt P51452); experiment: VHR phosphatase inhibition, dose response, selectivity assay for STEP inhibitor project, biochemical (AID 602374); format: functional; conditions: read-out: IC50_Mean
[14] = target: Tyrosine-protein phosphatase non-receptor type 5 (Homo sapiens, UniProt P54829); experiment: STEP phosphatase inhibitors, confirmation, biochemical, fluorescence intensity, uHTS hits (AID 602372); format: functional; conditions: read-out: IC50_Mean
Genome polyprotein = Genome polyprotein (Hepatitis C virus, UniProt Q2Q167); experiment: HCV core protein dimerization inhibitors, dose response, biochemical, TR-FRET (AID 2159); set-up: species or system Hepacivirus hominis;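 also: blocks dimerization of HCV core protein measured by TR-FRET between tagged core106 pairs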
Genome polyprotein, sequence (Q2Q167 whole entry): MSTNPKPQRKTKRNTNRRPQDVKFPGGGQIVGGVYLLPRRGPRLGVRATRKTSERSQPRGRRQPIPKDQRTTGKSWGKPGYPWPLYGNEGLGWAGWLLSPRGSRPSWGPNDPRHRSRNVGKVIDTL

[15] = target: Dual specificity protein phosphatase 6 (Rattus norvegicus, UniProt Q64346); experiment: MKP-3 phosphatase inhibitors, primary screen, biochemical, rat enzyme, in vitro (AID 425)
[16] = target: 5-hydroxytryptamine receptor 1A (Homo sapiens, UniProt P08908); format: functional
[17] = HEK293T cytotoxicity, dose response, cytotoxicity control for miR-122 modulator project, cell-based, activator set, cherry-pick (AID 720690); format: functional;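 also: HEK293T human cells scored for general mammalian cytotoxicity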
[18] = HEK293T cytotoxicity, dose response, cytotoxicity control for miR-122 modulator project, cell-based, inhibitor set, cherry-pick, set 2 (AID 720697); format: functional
14-3-3 protein gamma = 14-3-3 protein gamma (Homo sapiens, UniProt P61981); experiment: modulators of 14-3-3 gamma client binding – dose response (AID 711); format: functional
14-3-3 protein gamma, sequence (P61981 whole entry): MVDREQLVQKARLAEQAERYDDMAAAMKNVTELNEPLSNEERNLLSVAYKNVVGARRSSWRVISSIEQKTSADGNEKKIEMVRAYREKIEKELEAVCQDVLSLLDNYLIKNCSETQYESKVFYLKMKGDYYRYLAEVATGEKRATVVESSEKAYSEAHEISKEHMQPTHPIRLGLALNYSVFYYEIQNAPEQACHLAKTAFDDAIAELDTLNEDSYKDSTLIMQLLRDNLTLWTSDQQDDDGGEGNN

Cc1cccc(CS(=O)(=O)c2nnc([C@H](Cc3ccccc3)NC(=O)OC(C)(C)C)o2)c1
EC50 [1]: 2.19 µM (active) | EC50 [2]: 8.25 µM (active) | EC50 (Protein RecA): 5.42 µM (active) | EC50 (Streptokinase A): 1.5 µM (active) | IC50 [3]: 0.87 µM (active) | EC50 (Streptococcus): 10.2 µM (active) | AC50 [4]: 2.68 µM (active)

Cc1cccc(Nc2nn3c(=O)c4ccccc4nc3s2)c1
EC50 [5]: 32.2 µM (inactive) | IC50 [6]: 96.2 µM (inactive) | IC50 [7]: 17.6 µM (active) | IC50 [8]: 3.16 µM (active) | IC50 [9]: 5.79 µM (active) | IC50 (Prothrombin): > 100 µM (inactive) | IC50 [10]: 1.71 µM (active) | EC50 [11]: 21.7 µM (not active) | EC50 [12]: > 79.4 µM (not active) | IC50 [13]: 1.21 µM (active) | IC50 [14]: 4.17 µM (active) | IC50 (Genome polyprotein): > 49.8 µM (not active) | IC50 [15]: > 10 µM (not active)

CCOC(=O)C1CCN(C(c2cccnc2)c2c(NC(=O)c3ccco3)sc(C)c2C)CC1 (centres undefined)
EC50 [16]: > 50 µM (not active) | AC50 [17]: 29.4 µM (active) | AC50 [18]: 1.05 µM (active)

CN1C(=S)SC(N(O)C(=O)Nc2ccccc2)C1(C)C (centres undefined)
IC50 (14-3-3 protein gamma): > 50 µM (not active)
